Data reported in DBAASP.
Values after ≈ are worked out from the molar mass of the structure shown.

Columns and labels:
Experiment in all cases: ≥ marks a high value that may be exact or a test limit, other limits are often not marked, values filed in µg/mL are converted to µM
Escherichia coli BL21 = system: Escherichia coli BL21
[1] = system: Pseudomonas aeruginosa PAO1
[2] = system: Streptococcus pyogenes M1T1 5448
Escherichia coli UB1005 = system: Escherichia coli UB1005
Escherichia coli 55B5 = system: Escherichia coli 55B5
Salmonella typhimurium = system: Salmonella typhimurium
Pseudomonas aeruginosa = system: Pseudomonas aeruginosa
[3] = system: Pseudomonas aeruginosa K799
[4] = system: Salmonella enterica subsp. enterica serovar Typhimurium ATCC 14028s
[5] = system: Pseudomonas aeruginosa H744
[6] = system: Pseudomonas aeruginosa Z61
[7] = system: Pseudomonas aeruginosa H547
Yersinia enterocolitica = system: Yersinia enterocolitica
[8] = system: Escherichia coli ATCC 25922
[9] = system: Pseudomonas aeruginosa ATCC 27853
Salmonella sp. = system: Salmonella sp.
[10] = system: Staphylococcus aureus ATCC 29213
[11] = system: Salmonella enterica subsp. enterica serovar Enteritidis
Escherichia coli = system: Escherichia coli
[12] = system: Staphylococcus aureus ATCC 43300
[13] = system: Enterococcus faecium mic80
[14] = system: Enterococcus faecium t62764
[15] = system: Staphylococcus aureus C623
[16] = system: Enterococcus faecalis W61950
[17] = system: Klebsiella pneumoniae ESBL 61962
[18] = system: Pseudomonas aeruginosa LES400
[19] = system: Staphylococcus aureus ATCC 25923
[20] = system: Pseudomonas aeruginosa H1030
[21] = system: Escherichia coli ESBL 64771
[22] = system: Pseudomonas aeruginosa H1027
[23] = system: Pseudomonas aeruginosa PAO1 H103
[24] = system: Enterococcus faecalis f43559
[25] = system: Klebsiella pneumoniae ESBL 63575
[26] = system: Stenotrophomonas maltophilia ATCC 13637
Pseudomonas aeruginosa 9 = system: Pseudomonas aeruginosa 9
[27] = system: Enterococcus faecalis ATCC 29212
[28] = system: Escherichia coli ESBL 63103
[29] = system: Enterobacter cloacae 218R
[30] = system: Pseudomonas aeruginosa 213
[31] = system: Pseudomonas aeruginosa 198
[32] = system: Cryptococcus neoformans ATCC 32264
[33] = system: Candida albicans ATCC 10231
[34] = system: Staphylococcus aureus USA 300

SMILES: CC[C@H](C)[C@H](NC(=O)[C@H](CCCN=C(N)N)NC(=O)CNC(=O)[C@@H](NC(=O)[C@H](CCCCN)NC(=O)[C@H](CCCN=C(N)N)NC(=O)[C@@H](NC(=O)[C@H](Cc1ccc(O)cc1)NC(=O)[C@H](CCCN=C(N)N)NC(=O)[C@H](CCCN=C(N)N)NC(=O)[C@H](CC(C)C)NC(=O)[C@H](CCC(=O)O)NC(=O)[C@H](CCCCN)NC(=O)[C@H](C)NC(=O)[C@@H](NC(=O)[C@H](CCCN=C(N)N)NC(=O)[C@H](CC(N)=O)NC(=O)[C@@H](NC(=O)CNC(=O)[C@H](C)N)[C@@H](C)O)[C@@H](C)CC)[C@@H](C)CC)C(C)C)C(=O)N[C@@H](C)C(=O)N[C@@H](CCCN=C(N)N)C(=O)N[C@@H](CCCCN)C(=O)N[C@@H](CCCCN)C(=O)N[C@@H](Cc1c[nH]c2ccccc12)C(=O)O [AGTNRIAKELRRYIRKVGRIARKKW]
- MIC (Escherichia coli BL21): 1 µM (≈ 3.04 µg/mL)
- MIC [1]: 16 µM (≈ 48.7 µg/mL)
- MIC [2]: 1 µM (≈ 3.04 µg/mL)

SMILES: CC[C@H](C)[C@H](NC(=O)[C@H](C)N)C(=O)N[C@@H](Cc1cnc[nH]1)C(=O)N[C@@H](CCCCN)C(=O)N[C@@H](CC(C)C)C(=O)N[C@@H](C)C(=O)N[C@@H](Cc1cnc[nH]1)C(=O)N[C@@H](CCCCN)C(=O)N[C@@H](CC(C)C)C(=O)N[C@H](C(=O)N[C@@H](CCCCN)C(=O)N[C@@H](CCCCN)C(=O)N[C@H](C(=O)N[C@@H](CC(C)C)C(=O)N[C@@H](CCCN=C(N)N)C(=O)N[C@@H](C)C(=O)N[C@H](C(=O)N[C@@H](CCCCN)C(=O)N[C@@H](CCCCN)C(=O)N[C@@H](CC(C)C)C(=O)N[C@@H](C)C(=O)N[C@@H](CC(N)=O)C(=O)O)C(C)C)[C@@H](C)O)[C@@H](C)O [AIHKLAHKLTKKTLRAVKKLAN]
- MIC (Escherichia coli UB1005): 12.5 µM (≈ 31 µg/mL)
- MIC (Escherichia coli 55B5): 10.5 µM (≈ 26.1 µg/mL)
- MIC (Salmonella typhimurium): 10.5 µM (≈ 26.1 µg/mL)
- MIC (Pseudomonas aeruginosa): 12.5 µM (≈ 31 µg/mL)

SMILES: CC(C)C[C@H](NC(=O)[C@H](C)NC(=O)[C@H](CC(N)=O)NC(=O)[C@@H]1CCCN1C(=O)CNC(=O)[C@H](CO)NC(=O)[C@H](CC(N)=O)NC(=O)[C@@H](NC(=O)[C@H](C)NC(=O)[C@H](CCCCN)NC(=O)[C@H](CCC(N)=O)NC(=O)[C@H](C)NC(=O)[C@H](CCCCN)NC(=O)[C@H](Cc1c[nH]c2ccccc12)NC(=O)[C@H](Cc1c[nH]c2ccccc12)NC(=O)[C@H](CCCCN)NC(=O)[C@@H](N)CCCCN)C(C)C)C(=O)N[C@@H](CCC(N)=O)C(=O)N[C@H](C(=O)N[C@@H](CC(C)C)C(=O)N[C@@H](C)C(=O)N[C@@H](CCC(N)=O)C(=O)O)[C@@H](C)O [KKWWKAQKAVNSGPNALQTLAQ]
- MIC (Escherichia coli UB1005): 25.9 µM (≈ 64 µg/mL)
- MIC [3]: 25.9 µM (≈ 64 µg/mL)
- MIC [4]: 25.9 µM (≈ 64 µg/mL)
- MIC [5]: 25.9 µM (≈ 64 µg/mL)
- MIC [6]: 25.9 µM (≈ 64 µg/mL)
- MIC [7]: 25.9 µM (≈ 64 µg/mL)

SMILES: CC[C@H](C)[C@H](NC(=O)[C@H](CCC(N)=O)NC(=O)[C@@H](N)CCCN=C(N)N)C(=O)N[C@@H](CCCN=C(N)N)C(=O)N[C@@H](Cc1c[nH]c2ccccc12)C(N)=O [RQIRW]
- MIC (Yersinia enterocolitica): ≥ 50 µM
- MIC [8]: > 50 µM
- MIC [9]: > 50 µM
- MIC (Salmonella sp.): ≥ 50 µM
- MIC [10]: > 50 µM
- MIC [11]: ≥ 50 µM
- MIC (Escherichia coli): > 50 µM
- MIC [12]: > 50 µM

SMILES: CC(C)C[C@H](NC(=O)[C@H](Cc1c[nH]c2ccccc12)NC(=O)[C@H](Cc1c[nH]c2ccccc12)NC(=O)[C@H](CCCCN)NC(=O)[C@H](Cc1c[nH]c2ccccc12)NC(=O)[C@H](CCCN=C(N)N)NC(=O)[C@H](CCCN=C(N)N)NC(=O)[C@H](Cc1c[nH]c2ccccc12)NC(=O)[C@@H](N)CCCN=C(N)N)C(=O)O [RWRRWKWWL]
- MIC [13]: 2.65 µM (≈ 3.9 µg/mL)
- MIC [14]: 0.611 µM (≈ 0.9 µg/mL)
- MIC [15]: 1.36 µM (≈ 2 µg/mL)
- MIC [16]: ≥ 42.1 µM
- MIC [17]: 21 µM (≈ 31 µg/mL)
- MIC [18]: 2.65 µM (≈ 3.9 µg/mL)
- MIC [19]: 1.36 µM (≈ 2 µg/mL)
- MIC [20]: 5.5 µM (≈ 8.1 µg/mL)
- MIC [21]: 1.36 µM (≈ 2 µg/mL)
- MIC [22]: 0.136 µM (≈ 0.2 µg/mL)
- MIC [23]: 1.36 µM (≈ 2 µg/mL)
- MIC [24]: ≥ 42.1 µM
- MIC [25]: 5.02 µM (≈ 7.4 µg/mL)
- MIC [26]: 0.34 µM (≈ 0.5 µg/mL)
- MIC (Pseudomonas aeruginosa 9): 5.5 µM (≈ 8.1 µg/mL)
- MIC [27]: 10.9 µM (≈ 16 µg/mL)
- MIC [28]: 2.65 µM (≈ 3.9 µg/mL)
- MIC [29]: 2.65 µM (≈ 3.9 µg/mL)
- MIC [30]: 10.9 µM (≈ 16 µg/mL)
- MIC [31]: 5.5 µM (≈ 8.1 µg/mL)

SMILES: N=C(N)NCCC[C@H](NC(=O)[C@H](CCCNC(=N)N)NC(=O)[C@H](Cc1c[nH]c2ccccc12)NC(=O)[C@H](Cc1c[nH]c2ccccc12)NC(=O)[C@H](Cc1c[nH]c2ccccc12)NC(=O)[C@H](Cc1c[nH]c2ccccc12)NC(=O)[C@H](Cc1c[nH]c2ccccc12)NC(=O)[C@H](CCCCN)NC(=O)[C@H](Cc1c[nH]c2ccccc12)NC(=O)[C@H](Cc1c[nH]c2ccccc12)NC(=O)[C@@H](N)CCCNC(=N)N)C(=O)N[C@@H](Cc1c[nH]c2ccccc12)C(=O)N[C@@H](CCCCN)C(=O)N[C@@H](Cc1c[nH]c2ccccc12)C(=O)N[C@@H](CCCCN)C(=O)N[C@@H](CCCCN)C(N)=O [RWWKWWWWWRRWKWKK]
- MIC (Yersinia enterocolitica): ≥ 50 µM
- MIC [8]: > 50 µM
- MIC [32]: ≥ 200 µM
- MIC [9]: > 50 µM
- MIC (Salmonella sp.): ≥ 50 µM
- MIC [10]: > 50 µM
- MIC [33]: 100 µM (≈ 267 µg/mL)
- MIC [11]: 25 µM (≈ 66.9 µg/mL)
- MIC (Escherichia coli): > 50 µM
- MIC [12]: > 50 µM

SMILES: CC[C@H](C)[C@H](NC(=O)[C@H](Cc1ccccc1)NC(=O)[C@H](C)NC(=O)[C@H](CCCCN)NC(=O)[C@H](CCCCN)NC(=O)CNC(=O)[C@H](CCCN=C(N)N)NC(=O)[C@H](CCCCN)NC(=O)[C@H](CCCN=C(N)N)NC(=O)[C@H](CC(C)C)NC(=O)[C@H](CCC(=O)O)NC(=O)[C@H](CCC(=O)O)NC(=O)[C@H](CC(C)C)NC(=O)[C@H](CC(C)C)NC(=O)[C@H](Cc1ccc(O)cc1)NC(=O)[C@H](CCCCN)NC(=O)[C@@H](NC(=O)[C@H](CC(C)C)NC(=O)[C@H](C)NC(=O)[C@H](CCC(N)=O)NC(=O)[C@H](CCCN=C(N)N)NC(=O)CNC(=O)[C@@H](N)Cc1c[nH]c2ccccc12)[C@@H](C)O)C(=O)N[C@@H](C)C(=O)N[C@@H](Cc1c[nH]c2ccccc12)C(=O)O [WGRQALTKYLLEELRKRGKKAFIAW]
- MIC (Escherichia coli BL21): 16 µM (≈ 49 µg/mL)
- MIC [1]: 64 µM (≈ 196 µg/mL)
- MIC [34]: ≥ 128 µM
- MIC [2]: 2 µM (≈ 6.13 µg/mL)
